Data set [1] relates to DOX-induced cardio and hepatotoxicities. The experiment in a line: Doxorubicin (DOX)-induced acute heart failure animal model. Format: in vivo, mice. The method, then: This animal model is associated with an increase in oxidative stress and causes significant hepatopathy after DOX injection.
Specifically, 20-week-old male mice were injected intraperitoneally once with 20 mg/kg of DOX. […] Mortality was observed up to 10 days after DOX administration. After 10 days, the mice were sacrificed and the expressions of enzymes in the heart and liver tissues were analyzed. The cardiac function of the mice was also measured by echocardiogram.

Data set [2] is described as follows: H2O2 scavenging by PVAX or MnP-PVAX microparticles (amplex red assay). To be noted: 10 μM H2O2, 1 mg microparticles, 37° C., 6 or 24 h. The method, then:
After short centrifugation, the concentration of H2O2 in the supernatant was measured using an amplex red assay (Invitrogen, US).

The test system of the next data set is RAW 264.7 cells. The experiment in a line: NO production in LPS-treated cells (Griess reaction). To be noted: LPS-treated RAW 264.7, Griess. The format is cell-based. The method, then: The concentration of NO was determined using a colorimetric assay based on the Griess reaction. 50 μL of cell culture medium was collected and given 100 μL of Griess reagent (6 mg/mL) at room temperature for 10 min, and then the NO concentration was determined by measuring the absorbance at 540 nm using a microplate reader (Synergy MX, BioTek Instruments, US). The NO standard curve was constructed using known concentrations of sodium nitrite.
For orientation: Nitrite, measured by Griess reagent, commonly stands in for NO production.

Data set [3] deals with OVA-induced allergic airway inflammation. The experiment in a line: Mouse model of ovalbumin (OVA)-induced allergic asthma. The format is in vivo, BALB/c mice. Particulars: OVA-sensitized and challenged mice, ELISA. The method, then: On days 15, 16 and 17, mice were challenged intranasally with 50 μg of OVA. […] A sham group was given PBS only. On day 19, the mice were sacrificed and lung lobes were isolated along with the trachea. Lungs were also lavaged with 500 μL of PBS introduced through the trachea. BALF (bronchiolavage fluid) was centrifuged at 300×g for 5 min, and cells were rinsed and resuspended with PBS. Aliquots of the cell suspension were applied to slides by Cytospin (Hanil, Korea) at 500×g for 5 minutes allowed to air dry and stained with modified Wright's stain (Hema-3, Fisher Scientific). The numbers of macrophages, eosinophils, neutrophils and lymphocytes were determined morphologically and a minimum of 200 cells per slide were counted under the microscope (Eclipse, Nikon, Japan). The level of TNF-α in the supernatant of BALF was measured with an ELISA kit as advised by manufacturer (eBioScience, San Diego, Calif.). Lungs were perfused with PBS, removed and fixed in 4% buffered formalin. Lungs were embedded in paraffin and serial paraffin sections (3 μm) were cut. The sections were stained with hematoxylin (Yeongdong Pharma, Korea) and eosin (Showa Chemicals, Japan). Results are illustrated in FIGS. 49-51.
For orientation: In an ELISA, binding on a coated surface is turned into a signal by an enzyme label.

Data set [4] concerns RAW 264.7 cells activated with PMA. Kind of data set: ROS production in PMA-activated cells (DCFH-DA, flow cytometry). The format is cell-based. To be noted: PMA-stimulated; VA 0.5 mM, PVAX 100 μg. The method, then: The cells were treated with […] to stimulate the production of reactive oxygen species in the cells. After 4 hours, the cells were treated with DCFH-DA (dichlorofluorescin-diacetate), after which DCF ([…]) (a marker of intracellular oxidative stress) was analyzed using a flow cytometer (Becton Dickinson, US).
For orientation: A flow cytometer gives signals particle by particle.

Data set [5] in a line: Particle stability versus loading ratio. Format: physicochemical. An excerpt:
However, PVAX allowed greater ratio of VA-CHDM (up to 60%), providing greater therapeutic effects without significant compromise of the stability.

[6] abbreviates: echocardiogram, DOX-treated mice.

`COc1cccc2c1C(=O)c1c(O)c3c(c(O)c1C2=O)C[C@@](O)(C(=O)CO)C[C@@H]3O[C@H]1C[C@H](N)[C@H](O)[C@H](C)O1` [DOX, doxorubicin] returned a survival in data set [1] (10 days after DOX, p<0.05) of 35%. In addition, in data set [1] (setting [6]), the “ejection fraction (EF), mean” value came out at 25.54 and the “fractional shortening (FS), mean” value was 50.41. The mortality rate in data set [1] (observation up to 10 days after DOX 20 mg/kg i.p., PVAX daily) is on record as 65%.

For `C1=Cc2cc3ccc(cc4nc(cc5ccc(cc1n2)[nH]5)C=C4)[nH]3.[Mn]` [MnP, manganese porphyrin], in data set [2], the H2O2 scavenging activity entry is “H2O2 scavenging activity in a time-dependent manner”. In addition, the “inhibitory effects on NO production” value in the data set with RAW 264.7 cells was “inhibitory effects on NO production, not significant”.

In the case of `COc1cc(CO)ccc1O` [VA, 4-(hydroxymethyl)-2-methoxyphenol], in data set [3], the “expression of TNF-α in BALF” value is reported as “suppressed the expression of TNF-α”. Besides, the “inhibitory effects on NO production” value in the data set on RAW 264.7 cells is “inhibitory effects on NO production, not significant”. The “intracellular ROS generation (DCF fluorescence)” value in data set [4] is listed as “only slightly suppressed ROS generation”.

“poly(p-hydroxy-benzyl alcohol (HBA)-oxalic acid) copolymer [HPOX]”: the “particle stability / feasibility of loading” value in data set [5] was “not feasible due to instability of the particles”.

The values above are taken from patent US9844564B2 (Industrial Cooperation Foundation Chonbuk National …, priority 2012, dated 2017).
